Reference: patent US20040131567A1 (priority 2002, published 2004)

What was measured:
[1] = test system: Bacillus anthracis Stearns strain; assay type: cell-based
[2] = test system: Bacillus anthracis Ames strain; assay type: cell-based
[3] = test system: Paenibacillus polymyxa, Bacillus licheniformis, Bacillus subtilis, Bacillus sphaericus, Bacillus cereus and a wild Bacillus strain; assay type: cell-based, Bacillus species; settings: for average zone of inhibition: 3 replicate assays
[4] = test system: dry/cracking and scaly elbows; assay type: in vivo, human; settings: regimen tried prior to the inventive composition
[5] = test system: psoriasis; settings: in vivo
[6] = test system: Staphylococcus aureus; assay type: cell-based; parameters: key: NG = no growth; settings: S. aureus >10^5 CFU/ml inoculated into 2 ml d-limonene
[7] = test system: Staphylococcus epidermidis; assay type: cell-based; parameters: key: NG = no growth; settings: S. epidermidis >10^5 CFU/ml inoculated into 2 ml d-limonene
[8] = test system: Enterococcus faecalis; assay type: cell-based; parameters: key: NG = no growth; settings: E. faecalis >10^5 CFU/ml inoculated into 2 ml d-limonene
[9] = test system: Enterococcus faecium; assay type: cell-based; parameters: key: NG = no growth; settings: E. faecium >10^5 CFU/ml inoculated into 2 ml d-limonene
[10] = test system: Escherichia coli; assay type: cell-based; parameters: key: NG = no growth; settings: E. coli >10^5 CFU/ml inoculated into 2 ml d-limonene
[11] = test system: Enterobacter cloacae; assay type: cell-based; parameters: key: NG = no growth
[12] = test system: Klebsiella pneumoniae; assay type: cell-based; parameters: key: NG = no growth; settings: K. pneumoniae >10^5 CFU/ml inoculated into 2 ml d-limonene
[13] = test system: Serratia marcescens; assay type: cell-based; parameters: key: NG = no growth
[14] = test system: Pseudomonas aeruginosa; assay type: cell-based; parameters: key: NG = no growth; settings: P. aeruginosa >10^5 CFU/ml inoculated into 2 ml d-limonene
[15] = test system: Acinetobacter baummii/haemolyticus; assay type: cell-based; parameters: key: NG = no growth; settings: Ac. baum/haemo >10^5 CFU/ml inoculated into 2 ml d-limonene
[16] = test system: Stenotrophomonas maltophila; assay type: cell-based; parameters: key: NG = no growth
[17] = test system: gram-positive and gram-negative pathogens; assay type: cell-based
[18] = test system: Staphylococcus aureus, Staphylococcus epidermidis, Streptococcus pyogenes, Streptococcus mutans, other beta hemolytic streptococci, Entercoccus faecalis …; assay type: cell-based; settings: in vitro
[19] = test system: Escherichia coli, Enterobactor cloacae, Klebsiella pneumoniae, Serratia marcescens, Pseudomonas aeruginosa, Acinetobacter baummii/haemolyticus, Paenibacillus …; assay type: cell-based; settings: in vitro
[20] = test system: Bacillus licheniformis, B. sphaericus, Bacillus cereus, Bacillus subtilus, Bacillus anthracis (Stearns and Ames strains); assay type: cell-based, Bacillus species

O=[N+]([O-])[O-].[Ag+] [AgNO3, silver nitrate]
zone of inhibition (average inhibition zone) [1]: 18 mm | zone of inhibition [2]: 16 mm | average zone of inhibition ([3]; six Bacillus strains): 16 mm

Vitamin E
effect of earlier regimen on the condition [4]: no improvement | effect of earlier treatments on the psoriasis [5]: no results

O=C(O)c1cn(C2CC2)c2cc(N3CCNCC3)c(F)cc2c1=O [CIPRO]
effect of earlier treatments on the psoriasis [5]: Neither treatment was effective | side effects [5]: unpleasant side effects

d-limonene
Growth at 24 hr ([6]; 24 hr): NG* | Growth at 48 hr ([6]; 48 hr): NG | Growth at 72 hr ([6]; 72 hr): NG | Growth at 24 hr ([7]; 24 hr): NG | Growth at 48 hr ([7]; 48 hr): NG | Growth at 72 hr ([7]; 72 hr): NG | Growth at 24 hr ([8]; 24 hr): NG | Growth at 48 hr ([8]; 48 hr): NG | Growth at 72 hr ([8]; 72 hr): NG | Growth at 24 hr ([9]; 24 hr): NG | Growth at 48 hr ([9]; 48 hr): NG | Growth at 72 hr ([9]; 72 hr): NG | Growth at 24 hr ([10]; 24 hr): NG | Growth at 48 hr ([10]; 48 hr): NG | Growth at 72 hr ([10]; 72 hr): NG | Growth at 24 hr [11]: NG | Growth at 48 hr [11]: NG | Growth at 72 hr [11]: NG | Growth at 24 hr ([12]; 24 hr): NG | Growth at 48 hr ([12]; 48 hr): NG | Growth at 72 hr ([12]; 72 hr): NG | Growth at 24 hr [13]: NG* | Growth at 48 hr [13]: NG | Growth at 72 hr [13]: NG | Growth at 24 hr ([14]; 24 hr): NG | Growth at 48 hr ([14]; 48 hr): NG | Growth at 72 hr ([14]; 72 hr): NG | Growth at 24 hr ([15]; 24 hr): NG | Growth at 48 hr ([15]; 48 hr): NG | Growth at 72 hr ([15]; 72 hr): NG | Growth at 24 hr [16]: NG | Growth at 48 hr [16]: NG | Growth at 72 hr [16]: NG | effectiveness in killing or inhibiting growth of gram-positive and gram-negative bacteria [17]: effective in killing or inhibiting the growth | time within which all pathogens tested were effectively eradicated [17]: ≤ 24 h | zone of inhibition (average inhibition zone) [1]: 30 mm | zone of inhibition [2]: 21 mm | average zone of inhibition ([3]; six Bacillus strains): 21 mm | effectiveness in eradicating gram-positive pathogens [18]: effective in eradicating | effectiveness in eradicating gram-negative pathogens [19]: effective in eradicating | effectiveness in eradicating Bacillus species [20]: effective in eradicating

NC(=O)N/N=C/c1ccc([N+](=O)[O-])o1 [Furacin, nitrofurazone]
average zone of inhibition ([3]; six Bacillus strains): 35 mm

COc1cc(C)c(/C=C/C(C)=C/C=C/C(C)=C/C(=O)O)c(C)c1C [SORIATANE]
effect of earlier treatments on the psoriasis [5]: Neither treatment was effective | side effects [5]: unpleasant side effects

NCc1ccc(S(N)(=O)=O)cc1 [mafenide acetate]
susceptibility of the strain to the product [1]: susceptible | susceptibility of the strain to the product [2]: susceptible | average zone of inhibition ([3]; six Bacillus strains): 36 mm

OCl [NaOCl, sodium hypochlorite]
susceptibility of the strain to the product [1]: susceptible to all products tested except | zone of inhibition [2]: no zones of inhibition | average zone size ([3]; only the inhibited strains P. Polymyxa, B. sphaericus and B. cereus): 16 mm | inhibition of the Bacillus strains (which strains) ([3]; six Bacillus strains): only inhibited P. Polymyxa, B. sphaericus and B. cereus
